Reference: article PMC6585621 (Clinical Pharmacology and Therapeutics, 2018)
Like-named read-outs stand apart in the source and are kept apart here.

How the values were obtained:
[1] = type: in vivo, human; conditions: for t max / M1:dasabuvir AUC0‐23h ratio / M1:dasabuvir AUC0‐∞ ratio / t ½: after dasabuvir 250 mg oral; for t max: median (range); for M1:dasabuvir AUC0‐23h ratio / M1:dasabuvir AUC0‐∞ ratio / t ½: geometric mean (geometric CV)
[2] = Pharmacokinetics of ritonavir with and without clopidogrel; type: in vivo, human
[3] = cited from earlier work
[4] = in humans; cited from earlier work

Q: Which results are given for `COc1c(-c2ccc3cc(NS(C)(=O)=O)ccc3c2)cc(-n2ccc(=O)[nH]c2=O)cc1C(C)(C)CO` [M1]?
A: t max ([1]; clopidogrel and ritonavir phase): 4.0 (3.0–23) h; M1:dasabuvir AUC0‐23h ratio ([1]; clopidogrel phase): 0.0102 (42); M1:dasabuvir AUC0‐∞ ratio ([1]; clopidogrel phase): 0.0135 (32); t ½ ([1]; clopidogrel phase): 17.3 (23) h; t max ([1]; clopidogrel phase): 4.0 (3.0–23) h; M1:dasabuvir AUC0‐23h ratio ([1]; placebo phase): 0.0795 (28); M1:dasabuvir AUC0‐∞ ratio ([1]; placebo phase): 0.0774 (29); t ½ ([1]; placebo phase): 7.87 (32) h; t max ([1]; placebo phase): 4.0 (2.0–4.0) h; M1:dasabuvir AUC0‐23h ratio ([1]; ritonavir phase): 0.0888 (35); M1:dasabuvir AUC0‐∞ ratio ([1]; ritonavir phase): 0.0786 (38); t ½ ([1]; ritonavir phase): 7.35 (25) h; t max ([1]; ritonavir phase): 4.0 (3.0–6.0) h; AUC0‐23h in clopidogrel phase as % of that during placebo phase ([1]; geometric mean): 41%; AUC0‐23h in clopidogrel–ritonavir phase as % of that during the ritonavir phase ([1]; geometric mean): 48%; C max in clopidogrel phase as % of that in the placebo phase ([1]; geometric mean): 20%; C max in clopidogrel–ritonavir phase as % of that during the ritonavir phase ([1]; geometric mean): 22%; M1:dasabuvir AUC0‐∞ ratio in clopidogrel phase as % of that with placebo ([1]; geometric mean): 17%; AUC0‐23h, clopidogrel and ritonavir phase to ritonavir phase ratio ([1]; geometric mean ratio (90% CI)): 0.48 (0.32–0.71) P = 0.002; AUC0‐23h, clopidogrel phase to placebo phase ratio ([1]; geometric mean ratio (90% CI)): 0.41 (0.26–0.65) P = 0.001; C max, clopidogrel and ritonavir phase to ritonavir phase ratio ([1]; geometric mean ratio (90% CI)): 0.22 (0.13–0.36) P = 0.00002; C max, clopidogrel phase to placebo phase ratio ([1]; geometric mean ratio (90% CI)): 0.20 (0.11–0.36) P = 0.00006; M1:dasabuvir AUC0‐23h ratio, clopidogrel and ritonavir phase to ritonavir phase ratio ([1]; geometric mean ratio (90% CI)): 0.14 (0.12–0.17) P = 5·10^−11; M1:dasabuvir AUC0‐23h ratio, clopidogrel phase to placebo phase ratio ([1]; geometric mean ratio (90% CI)): 0.13 (0.11–0.15) P = 5·10^−12; M1:dasabuvir AUC0‐∞ ratio, clopidogrel and ritonavir phase to ritonavir phase ratio ([1]; geometric mean ratio (90% CI)): 0.20 (0.17–0.25) P = 5·10^−10; M1:dasabuvir AUC0‐∞ ratio, clopidogrel phase to placebo phase ratio ([1]; geometric mean ratio (90% CI)): 0.17 (0.16–0.19) P = 2·10^−14; t ½, clopidogrel and ritonavir phase to ritonavir phase ratio ([1]; geometric mean ratio (90% CI)): 1.92 (1.57–2.34) P = 0.00001; t ½, clopidogrel phase to placebo phase ratio ([1]; geometric mean ratio (90% CI)): 2.20 (1.72–2.81) P = 0.00001; effect of ritonavir on pharmacokinetics compared to pretreatment with placebo ([1]; ritonavir 100 mg twice daily): did not cause significant changes

Q: With `CC(C)c1nc(CN(C)C(=O)N[C@H](C(=O)N[C@@H](Cc2ccccc2)C[C@H](O)[C@H](Cc2ccccc2)NC(=O)OCc2cncs2)C(C)C)cs1` [Ritonavir, ritonavir] as the molecule, how does the t max ([2]; clopidogrel and ritonavir phase, median (range)) read?
A: 3.0 h

Q: What about the “t ½ during coadministration of clopidogrel as % of that in the ritonavir phase” value ([2]; geometric mean) of the same molecule?
A: 112%

Q: What about the t max ([2]; human, plasma, oral) of the same molecule?
A: 1.75 h

Q: With `CC(C)(O)c1ccccc1CC[C@@H](SCC1(CC(=O)O)CC1)c1cccc(/C=C/c2ccc3ccc(Cl)cc3n2)c1` [montelukast] as the molecule, how does the “increase of AUC of CYP2C8 substrate by gemfibrozil” value (from here on “increase of AUC of CYP2C8 substrate”) [3] read?
A: ~4.5 fold

Q: With `CCc1ccc(CCOc2ccc(CC3SC(=O)NC3=O)cc2)nc1` (stereo not drawn) [pioglitazone] as the molecule, how does the “increase of AUC of CYP2C8 substrate” value [3] read?
A: about 3 fold

Q: For `O=C(O)C[C@H](O)C[C@H](O)/C=C/c1c(C2CC2)nc2ccccc2c1-c1ccc(F)cc1` [pitavastatin], which “effect of clopidogrel on pharmacokinetics” value [4] is on record?
A: not affected

Q: Which “increase of AUC of CYP2C8 substrate” value [3] does the source give for `CCOc1cc(CC(=O)N[C@@H](CC(C)C)c2ccccc2N2CCCCC2)ccc1C(=O)O` [repaglinide] here?
A: ~8 fold
